Results as given in patent US20110144125A1, “Anti-Arrhythmia Agents, Methods of Their Use, Methods of Their Identification and Kits Therefore” (THE UAB RESEARCH FOUNDATION, priority 2008, published 2011).
Values joined by “and” are separate entries in the source; they are usually repeats but may differ in a detail not shown here. Equal entries are not always repeated. “Also recorded” adds a separate entry of the source. Where two headings read alike, the source gives them in different places.

Columns and labels:
rat left atria [1] = test: Spontaneous tachycardic activity (STA) in isolated rat left atria exposed to 2-APB under increased calcium load
Method: Male Sprague-Dawley rats (325-400 g) were anesthetized with intra-peritoneal pentobarbital (0.1 g/kg). Their right and left atria were isolated, superfused at 30° C. in Krebs-Henseleit buffer, and nearly isometric forces of contraction were measured from these muscles (Wolkowicz et al., 2002). 2-APB was prepared as a 150 mM dimethyl sulfoxide stock.
(§1) Left atria (n=8 per group) were paced at 3 Hz and (i) titrated with 0 to 30 nM isoproterenol (Ahlquist, 1970) or (ii) exposed to 3 μM forskolin (Laurenza et al., 1980). Left atrial force and frequency of contraction, the time to peak tension and relaxation times were recorded after a 3-5 min exposure to forskolin or to any concentration of isoproterenol. The 3 Hz pacing stimulus was interrupted at the end of these protocols to measure SMEs.
Left atria (n=10 per group) were paced at 0.1 Hz and treated with (i) 20 μM 2-APB for 10 min, (ii) with 30 nM isoproterenol for 5 min followed by 20 μM 2-APB for 10 min, and (iii) with 3 μM forskolin for 5 min followed by 20 μM 2-APB for 10 min.
Left atrial contraction and relaxation times were recorded at these five times, the pacing stimulus was stopped and rates of SMA were recorded. To determine whether initial pacing rate affects left atrial response to 2-APB and isoproterenol, left atria (n=5-7 per group) were paced at 3 Hz and (i) remained untreated for 15 min, (ii) were treated with 20 μM 2-APB alone for 10 min, or (ii) were treated with 30 nM isoproterenol for 5 min followed by 20 μM 2-APB for 10 min. Atrial mechanical function was measured at these four times; the pacing stimulus then was stopped and rates of SMA were recorded.
(§2) Left atria (n=6 per group) were paced at 3 Hz, titrated with 0 to 300 nM (−)BayK 8644 ([…]-1,4-Dihydro-2,6-dimethyl-5-nitro-4-[2-(trifluormethyl)phenyl]-3-pyridinecarboxylic acid methyl ester; Franckowiak et al. 1985) or FPL-64176 ((2,5-Dimethyl-4-[2-(phenylmethyl)benzoyl]-111-pyrrole-3-carboxylic acid methyl ester; Zheng et al., 1991) and their mechanical function and rates of SMA were recorded after a 5 min exposure to any concentration of slow calcium channel activator.
Left atria (n=8 per group) were paced at 0.1 Hz, exposed to 300 nM BayK 8644 or FPL-64176 for 5 min followed by 20 μM 2-APB for 10 min. Atrial mechanical function was recorded at this time; the pacing stimulus then was stopped and rates of SMA were recorded.
(§3) To test whether ryanodine receptor calcium leak produces SMA, left atria (n=6 per group) were paced at 0.1 Hz, treated with 0 or 300 nM BayK 8644 for 5 min, and then exposed to 600 nM ryanodine (Sutko et al., 1997). Atrial mechanical function and rates of SMA were recorded 20 min after exposure to ryanodine.
Rates of SMA were measured 5 min later.
(§4) Left atria (n=7) were paced at 3 Hz, treated with 120 μM ouabain (Illanes and Marshall, 1964), and any change in mechanical function was recorded at a new steady state, ˜10 min later. These atria were exposed to 20 μM 2-APB and their mechanical function and rates of SMA were recorded 10 min later.
3 Hz-paced left atria (n=9 per group) were superfused (i) in Krebs-Henseleit alone or (ii) they were treated with 20 μM 2-APB for 10 min, (iii) with 300 nM BayK 8644 for 10 min and with 20 μM 2-APB for 10 min, or (iv) they were treated with 300 nM BayK 8644 and 20 μM 2-APB for 10 min, then with 70 μM zatebradine (3-[3-[[2-(3,4-Dimethoxyphenyl)ethyl]methylamino] propyl]-1,3,4,5-tetrahydro-7,8,-dimethoxy-2H-3-benzazepin-2-one hydrochloride) for 10 min (Baruscotti et al., 2005). Pacing was interrupted at these times and rates of SMA were recorded.

rat left atria [2] = test: Left atrial force of contraction / post-rest potentiation maximum force
Method: Left atria were isolated from male Sprague-Dawley rats (325 to 400 g) under IP pentobarbital anesthesia (0.1 g/kg). Isolated left atria were superfused at 30° C. in Krebs-Henseleit (KH) buffer of the following mM composition: NaCl, 118; NaHCO3, 27; KCl, 4.8; MgSO4, 1.2; KH2PO4, 1.0; CaCl2, 1.8; and glucose, 11.1. Nearly isometric left atrial forces of contraction were measured as described.
The initial potentiated beat following prolonged rest (i.e., the PRP maximum force of contraction) reflects activator calcium available for SR release. The PRP response was used to obtain an indirect measure of left atrial SR calcium under our conditions.
Left atria (n=6) were superfused in KH, paced at 0.1 Hz, and subjected to PRP. Superfusion proceeded for another 35 min, and a second PRP was performed. These 2 forces were compared to assure the mechanical stability of our preparations.
One group (n=8) was superfused in KH, paced at 0.1 Hz, and their maximum force of contraction was measured. These atria were washed with KH containing 82 mM sodium, and a second PRP was performed 23 min later.
A second group (n=8) was paced at 0.1 Hz in KH and subjected to PRP. They were exposed to 22 μM 2-APB and, after the appearance of SMA, were washed with KH containing 22 μM 2-APB and 82 mM sodium. Superfusion continued for 23 min and a second PRP was performed.
Control 0.1 Hz paced atria (n=8) were subjected to PRP and exposed to 400 μM DIDS, and a second PRP was performed 23 min later.
A group of atria (n=8) were paced at 0.1 Hz in KH and subjected to PRP. They were exposed to 22 μM 2-APB, 400 μM DIDS was added to the superfusate after the appearance of SMA, and a second PRP was performed 23 min later.
as §1, §2, §3, §4
To test whether zatebradine affects left atrial force of contraction, two groups of left atria (n=9 per group) were paced at 3 Hz and treated with 300 nM BayK 8644. Five minutes later one group was incubated with six increasing concentrations of zatebradine (10-100 μM) for 3-5 min at each concentration, and forces of contraction were recorded. A second group was treated with BayK 8644 but not zatebradine, and forces of contraction were recorded at corresponding times.

[3] = 20 μM 2-APB plus 30 nM isoproterenol, 3 μM forskolin, 300 nM BayK 8644, 300 nM FPL-64176 or 120 μM ouabain, absence of pacing, 30° C.
[4] = no 2-APB, 30 nM isoproterenol, 3 μM forskolin, 300 nM BayK 8644 or FPL-64176, 120 μM ouabain, 600 nM ryanodine

For COC(=O)c1c(C)[nH]c(C)c1C(=O)c1ccccc1Cc1ccccc1 [FPL-64176, 2,5-Dimethyl-4-[2-(phenylmethyl)benzoyl]-111-pyrrole-3-carboxylic acid methyl ester], the “rate of STA (SMA frequency) in presence of 2-APB and calcium loading agent” value (from here on “rate of STA … of 2-APB and calcium loading agent”) (rat left atria [1]) was 222±9 contractions/min and the “left atrial force of contraction with agent alone” value (from here on “left atrial force of contraction”) (rat left atria [2]) was “increase left atrial force of contraction”.

For C[C@@H]1O[C@@H](O[C@H]2C[C@@H](O)[C@]3(CO)[C@H]4[C@H](O)C[C@]5(C)[C@@H](C6=CC(=O)OC6)CC[C@]5(O)[C@@H]4CC[C@]3(O)C2)[C@H](O)[C@H](O)[C@H]1O [ouabain], the “rate of STA … of 2-APB and calcium loading agent” value (rat left atria [1]; [3]) was 202±5.6 contractions/min and the “left atrial force of contraction” value (rat left atria [2]; [4]) was “doubles their force of contraction”.

CC(C)NCC(O)c1ccc(O)c(O)c1 (centres unmarked) [isoproterenol] was tested, and the “rate of STA … of 2-APB and calcium loading agent” value (rat left atria [1]; [3]) was ~230 contractions/min and 239±11 contractions/min and 225±3.6 contractions/min and the “left atrial force of contraction” value (rat left atria [2]; [4]) was “increase left atrial force of contraction”.

NCCOB(c1ccccc1)c1ccccc1 [2-APB, 2-aminoethoxydiphenyl borate] was tested, and the “rate of STA post-washing” value (rat left atria [1]) was 0.7±0.4 contractions/min, the “rate of STA pre-washing” value (rat left atria [1]) was 224±12 contractions/min and the “maximum force of atrial contraction” value (rat left atria [2]) was “also decreased”. The “maximum force of left atrial contraction” value (rat left atria [2]) was “significantly decreased”.

For COC(=O)C1=C(C)NC(C)=C([N+](=O)[O-])[C@H]1c1ccccc1C(F)(F)F [BayK 8644, (45)-1,4-Dihydro-2,6-dimethyl-5-nitro-4-[2-(trifluormethyl)phenyl]-3-pyridinecarboxylic acid methyl ester], the “rate of STA … of 2-APB and calcium loading agent” value (rat left atria [1]) was 227±10 contractions/min and the “left atrial force of contraction” value (rat left atria [2]) was “increase left atrial force of contraction”.

For ryanodine, the “STA after depletion of ryanodine-sensitive calcium stores” value (rat left atria [1]; BayK 8644 and 2-APB, then 600 nM ryanodine) was “persists; also recorded: does not terminate STA” and the “left atrial force of contraction” value (rat left atria [2]) was “Time-dependent decreases in force of contraction”.
